According to patent publication US12559769B2, “Methods and compositions for the activation of tumor cytotoxicity via human gamma-delta t-cells” (priority 2017, dated 2026):

Tested on: Vγ9Vδ2 T cells
Assay: Activation of Vγ9Vδ2 T cells (TNF-α, flow cytometry) by THP-1 monocytic leukemia cells co-cultured with expanded PBMC
Format: cell-based, human
Description: THP-1 cells (2×10^5 cells) were transduced with LV-control or LV-miR30 FDPS #1 (SEQ ID NO: 68) for 7 days. Cells were treated with or without 1 μM zoledronic acid. After 24 hours, the transduced THP-1 cells were co-cultured for 4 hours with 2×10^5 PBMC cells in 5 mL round-bottom tubes. The PBMC cells had been pre-stimulated with zoledronic acid plus IL-2 for at least 11 days to expand Vγ9Vδ2 T cells. After staining for Vγ9Vδ2 and TNF-α using fluorophore-conjugated anti TCR-Vδ2 and anti-TNF-α antibody, cells were analyzed via flow cytometry. Live cells were gated; Vδ2+ and TNF-α+ cells were identified on a dot blot. The activated cytotoxic Vγ9Vδ2 T cells appeared in the upper right quadrant of the flow cytograms. Without zoledronic acid, LV-control stimulated 2.44% of TNF-α expressing Vγ9Vδ2 T cells and LV-miR30 FDPS #1 (SEQ ID NO: 68) stimulated 28.4%. With zoledronic acid treatment, LV-control stimulated 23.8% of TNF-α expressing Vγ9Vδ2 T cells and LV-miR30 FDPS #1 (SEQ ID NO: 68) stimulated 61.4%.
THP-1 cells were transduced with LV-control or LV-FDPS shRNA #4 (SEQ ID NO: 4) or Lv-GGPS1 shRNA #1 (SEQ ID NO: 70) for 3 days. Two days after transduction, cells were treated with or without 1 μM zoledronic acid. After 24 hours, the transduced THP-1 cells were co-cultured for 4 hours with 5×10^5 PBMC cells in a round bottom 96 well plate. The PBMC cells had been pre-stimulated with zoledronic acid plus IL-2 for at least 11 days to expand Vγ9Vδ2 T cells. After staining for Vγ9Vδ2 and TNF-α using fluorophore-conjugated anti TCR-Vδ2 and anti-TNF-α antibody, cells were analyzed via flow cytometry. Live cells were gated; Vδ2+ and TNF-α+ cells were identified on a dot blot. The activated cytotoxic Vγ9Vδ2 T cells appeared in the upper right quadrant of the flow cytograms. Without zoledronic acid, LV-control stimulated 1.33% of TNF-α expressing Vγ9Vδ2 T cells whereas Lv-FDPS shRNA #4 (SEQ ID NO: 4) stimulated 2.49%, Lv-GGPS1 #1 shRNA (SEQ ID NO: 70) stimulated 1.22%, and both combined stimulated 1.91%. With zoledronic acid treatment, Lv-control stimulated 5.74% of TNF-α expressing Vγ9Vδ2 T cells, whereas Lv-FDPS shRNA #4 (SEQ ID NO: 4) stimulated 10.8%, Lv-GGPS1 shRNA #1 (SEQ ID NO: 70) stimulated 4.5%, and both combined stimulated 11.5%.
ZA is a small molecule inhibitor of squalene synthase in the pathway committed to sterol synthesis. THP-1 cells were treated with either the FDPS inhibitor Zol (10 μM), the famesyl transferase inhibitor FTI (10 μM), or ZA (50 μM) for 24 hours. THP-1 cells (2.5×10^5) were co-cultured with 2.5×10^5 PBMC cells in a round bottom 96 well plate for 5 hours. The PBMC cells had been pre-stimulated with zoledronic acid plus IL-2 for at least 11 days to expand Vγ9Vδ2 T cells. After staining for Vγ9Vδ2 and TNF-α using fluorophore-conjugated anti TCR-Vδ2 and anti-TNF-α antibody, cells were analyzed via flow cytometry. Live cells were gated; Vδ2+ and TNF-α+ cells were identified on a dot blot. The activated cytotoxic Vγ9Vδ2 T cells appeared in the upper right quadrant of the flow cytograms. Untreated cells stimulated 3.08% of TNF-α expressing Vγ9Vδ2 T cells, whereas zoledronic acid treatment stimulated 40.1%, FT1277 treatment stimulated 11.7%, and zaragozic acid stimulated 2.13%.

[1] = Example 24, FIG. 28, THP-1 cells treated 10 μM for 24 hours, untreated cells 3.08%

Row | SMILES | percent of TNF-α expressing Vγ9Vδ2 T cells [1] [%] | percent of TNF-α expressing Vγ9Vδ2 T cells (Example 24, FIG. 28, THP-1 cells treated 50 μM for 24 hours, untreated cells 3.08%) [%] | percent of TNF-α expressing Vγ9Vδ2 T cells (Example 17, LV-control transduced THP-1 cells, 1 μM zoledronic acid) [%] | percent of TNF-α expressing Vγ9Vδ2 T cells (Example 21, Lv-control transduced THP-1 cells, 1 μM zoledronic acid) [%]
1 | COC(=O)[C@H](CCSC)NC(=O)c1ccc(NC[C@@H](N)CS)cc1-c1ccccc1 [FT1277] | 11.7 |  |  | 
2 | C=C(CC[C@]12O[C@H](C(=O)O)[C@@](O)(C(=O)O)[C@](C(=O)O)(O1)[C@H](OC(=O)/C=C/[C@@H](C)C[C@@H](C)CC)[C@H]2O)[C@@H](OC(C)=O)[C@H](C)Cc1ccccc1 [zaragozic acid] |  | 2.13 |  | 
3 | O=P(O)(O)C(O)(Cn1ccnc1)P(=O)(O)O [zoledronic acid] | 40.1 |  | 23.8 | 5.74
